# Laboratory results from US20090264421A1 (priority 2007, published 2009).
# Read-outs that look alike come from different tables or passages of the source.
# Key:
# [1] = tested on: A549 cells; type: cell-based, human
# Method: FIG. 7. […] A549 cells were exposed to the indicated concentration of chaetocin for 24 hours, with addition of glutathione or diluent 30 minutes prior to chaetocin addition. Glutathione levels were assessed by spectrophotometric assay as described below. […] Cells were treated with 10 μM chaetocin for 20 minutes prior to assay, and calculated intracellular chaetocin levels were measured by HPLC with adjusted for differences in average cell volume (calculated from measured cell radii ascertained via light microscopy). Shaded area represents 1 standard deviation confidence interval, with central bar reflecting the mean relative intracellular chaetocin level. […] Cells from 4 myeloma patients were exposed to 200 μM hydrogen peroxide for 24 hours prior to assay, with trypan blue exclusion used to assess surviving cells.
# Assessment of cellular oxidative stress: Cellular oxidative stress was assessed utilizing 5,6-chloromethyl-2′,7′-dichlorodihydrofluorescein diacetate or hydroethidium (Molecular Probes/Invitrogen, Carlsbad, Calif.) as cell permeable fluorescent probes and FACS analyses.
# [2] = tested on: freshly collected sorted patient CD138+ myeloma cells; details: 24 hours
# Method: FIG. 3. […] Survival indicated in A-E was assessed using a trypan blue exclusion assay, counting viable cells using a hemocytometer after 24 hour exposure to the indicated drugs and drug concentrations.
# Patient bone marrow leukocytes were divided into myeloma (CD138+) and non-myeloma/normal leukocyte (CD138−) fractions employing sorting using magnetic bead technology in kit form (MACS CD138 microbeads, Miltenyi Biotech, Auburn, Calif.). Sorted cells were plated in a 96-well tissue culture plate at a concentration of 5×10^5 cells and dosed with indicated drug concentrations for 24 hours. Survival was assessed using a trypan blue exclusion assay.
# [3] = tested on: A549 cells; details: for effect of NAC on reductions in colony formation caused by HDAC inhibitors: data not shown
# Method: FIG. 5. […] B. Assessment of intracellular (A549 cells) and extracellular (media) chaetocin concentrations as functions of time in response to addition of 10 μM chaetocin to tissue culture media at time 0. C. […] For B and C, chaetocin concentrations were determined as described in the text using HPLC. […] Cells were exposed to all agents for 24 hours, with colonies assessed 6-7 days subsequently as described below.
# FIG. 6. […] C. and D. The effects of glutathione pretreatment on intracellular (C) and extracellular (media, D) chaetocin concentration in response to treatment of A549 cells with 10 μM chaetocin for 5 min. Intracellular and extracellular chaetocin concentrations were assessed using HPLC as described in the text, with 100 μM glutathione added 5 minutes before chaetocin addition. E. “Double reciprocal” plot indicating the effects of 5 minute pretreatment with 100 […] glutathione or diluent on intracellular chaetocin concentrations resulting from exposure of A549 cells to varying concentration of chaetocin for 5 minutes. Intracellular chaetocin concentrations were assessed using HPLC as described in the text. Results shown are representative of three independent experiments.
# Colony formatting assays: Briefly, 650 suspended A549 cells obtained from trypsinization of stock flasks of subconfluent cell cultures were deposited into each of triplicate sets of 35 mm tissue culture plates and allowed to adhere for 16 hours. Cells were then treated for the indicated durations (24 hours unless otherwise indicated) with diluent and/or drugs as indicated in the text and Figures. After drug removal and washing, cells were allowed to proliferate in drug-free medium for 7 to 10 days, and thereafter washed twice with serum-free phosphate buffered saline (PBS), stained with Coomassie blue, and then manually counted.
# [4] = molecular target: T1, thioredoxin reductase (Rattus norvegicus, UniProt O89049); assay: Thioredoxin reductase activity assay (gel-based oxidation state of thioredoxin method); type: biochemical; details: gel-based, AMS modification
# T1 construct: rat liver thioredoxin reductase; purchased Sigma (St. Louis, Mo.); host or cells: rat liver
# T1 sequence (O89049 1-499): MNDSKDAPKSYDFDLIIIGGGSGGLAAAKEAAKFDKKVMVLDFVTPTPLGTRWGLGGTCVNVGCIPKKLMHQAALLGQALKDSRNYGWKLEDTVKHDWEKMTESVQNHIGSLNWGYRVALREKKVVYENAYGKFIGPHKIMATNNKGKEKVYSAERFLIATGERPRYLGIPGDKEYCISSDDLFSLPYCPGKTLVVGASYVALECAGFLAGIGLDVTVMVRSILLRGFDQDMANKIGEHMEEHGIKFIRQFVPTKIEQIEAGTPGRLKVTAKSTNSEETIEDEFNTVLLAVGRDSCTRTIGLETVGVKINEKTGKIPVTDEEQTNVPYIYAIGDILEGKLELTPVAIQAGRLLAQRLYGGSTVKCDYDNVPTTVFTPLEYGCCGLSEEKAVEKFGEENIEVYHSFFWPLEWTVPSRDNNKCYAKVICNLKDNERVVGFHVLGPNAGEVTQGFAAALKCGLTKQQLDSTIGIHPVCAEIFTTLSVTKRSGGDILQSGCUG
# Method: HeLa cells were obtained from ATCC.
# Thioredoxin Reductase Activity Assay (gel-based oxidation state of thioredoxin method): Reduction of thioredoxin by thioredoxin reductase was measured by the decrease in electrophoretic mobility caused by covalent modification of thioredoxin (by AMS) when the disulfide is reduced. […] At the indicated time, a 5 μL sample was removed and immediately added to 5 μL of 30 mM AMS in TE buffer (pH 7.5). The AMS was allowed to react (15 minutes at 22° C.) with reduced thioredoxin sulfhydryl groups, then the samples were mixed with non-reducing sample buffer and were electrophoresed on 18% Tris-HCl SDS-PAGE gels. The gels were stained with Coomassie blue and bands were imaged and quantitated using a Syngene InGenius gel documentation system (Frederick, Md.).
# [5] = molecular target: T2, TrxR1 (Rattus norvegicus, UniProt O89049)
# T2 sequence (O89049 1-499): T1 sequence (O89049 1-499)
# From the text: Reagents: Chaetocin, β-Nicotinamide adenine dinucleotide 2′-phosphate reduced tetrasodium salt hydrate (NADPH), rat liver thioredoxin reductase, 5,5′-dithiobis(2-nitrobenzoic acid) (DTNB), oxidized glutathione (GSSG), bovine insulin, gliotoxin, thioredoxin reductase assay kit, anti-actin antibody and Celytic lysis reagent were purchased from Sigma (St. Louis, Mo.); yeast glutathione reductase and Complete Protease Inhibitor Tablets from Roche (Indianapolis, Ind.); BCA protein from Pierce (Rockford, Ill.); oxidized E. coli thioredoxin and dithiothreitol (DTT) from Promega (Madison, Wis.); verruculogen from Calbiochem (San Diego, Calif.); 4-acetamido-4′-maleimidylstilbene-2,2′-disulfonic acid (AMS) and Lipofectamine-Plus from Invitrogen (Carlsbad, Calif.); chaetomin from Alexis Biochemicals (San Diego, Calif.); and anti-thioredoxin antibody from Cell Signaling (Beverly, Mass.). HeLa cells were obtained from ATCC.
# Steady-state kinetics: The 100 μL reaction consisted of 100 mM potassium phosphate (pH 7.0), 10 mM EDTA, 0.0004 U/μL thioredoxin reductase and chaetocin or other compounds as indicated. The assay was carried out in a 96-well quartz plate and the oxidation of NADPH was measured as a change in absorption at 340 nm. The initial velocities of the reaction were calculated from the decrease in the absorbance between 0 and 5 min (slope), and on a pathlength of 0.3 cm and NADPH ε=6.22 mmol^−1*cm^−1*L. The velocity versus concentration data were then analyzed using SigmaPlot's Enzyme Kinetics 1.3 program (Systat Software, San Jose, Calif.).
# [6] = tested on: HeLa cells; assay: Transient thioredoxin overexpression in HeLa cells, trypan blue viability; type: cell-based, human; details: 100 nM, 24 hours
# Method: A. Transient overexpression of thioredoxin attenuates chaetocin—but not doxorubicin-induced cytotoxicity in HeLa cells. Transfected cells were treated for 24 hours, cell viability assessed using a trypan blue […] assay. Inset: immunoblotting showing increased level of thioredoxin in transiently transfected HeLa cells compared to empty-vector transfected cells. B. Model indicating how chaetocin competes with thioredoxin as a substrate for thioredoxin reductase, thereby serving to attenuate reduction of the thioredoxin reductase downstream substrate and effector thioredoxin. Figure numbers corresponding to experimental data supporting indicated effects are shown.
# Cell culture, transient transfections, and immunoblotting: HeLa cells were cultured in RPMI 1640 containing 5% FBS and 2 mM L-glutamine. Cells were passaged twice weekly and maintained in 37° C. in an atmosphere containing 95% air-5% CO2 (vol/vol). For transfections, 10^5 cells per well were plated in 12-well plates and were transfected with 1 μg pcDNA or pcDNA-Trx using standard Lipofectamine-Plus procedures. Transfection efficiency based on cells transfected with GFP was 80%. […] The cells were then trypsinized and manually counted in trypan blue to exclude dead cells. […] Protein was analyzed by BCA assay and lysates were electrophoresed on 15% SDS-PAGE gels and transferred to nitrocellulose. […]
# [7] = tested on: A549 cells; type: cell-based, human; details: glutathione added 5 minutes before 10 μM chaetocin
# From the text: Measurement of intra- and extracellular chaetocin levels: Tumor cells treated with indicated chaetocin concentrations were washed twice with ice cold PBS, immediately solubilized in 0.5 M perchloric acid, and evaluated “real time” via HPLC using Beckman System Gold Nouveau Software with a dual pump 125 gradient pump system, 507e autosampler, 168 diode array detector, and Beckman Ultrasphere ODS column (4.6 mm×[…]×7 μm) using the following elution profile: 100% water to 100% methanol linear gradient over 40 minutes, followed by a 10 minute period of elution with 100% methanol. Quantitation was accomplished using a standard curve of peak areas derived from analogous HPLC data using varying concentrations of chaetocin.
# [8] = substrate of TrxR1, NADPH oxidation
compound,measurement,setting,value
"OO [H2O2, hydrogen peroxide]",cellular oxidative stress,"[1]; 24 hours, FACS probe",increased intracellular oxidative species
same,sensitivity of patient myeloma cells versus matched normal leukocytes,"[2]; 200 μM hydrogen peroxide, 4 patients",more sensitive to peroxide-induced cytotoxicity
O=C(/C=C/c1ccc(CN(CCO)CCc2c[nH]c3ccccc23)cc1)NO [LAQ-824],effect of NAC on reductions in colony formation caused by HDAC inhibitors,[3]; A549 cells,unaffected by NAC
"CC(=O)N[C@@H](CS)C(=O)O [NAC, N-acetyl cysteine]",effect of pretreatment on chaetocin-induced oxidative stress,[1]; 10 mM NAC,attenuated chaetocin-induced oxidative stress
same,effect of co-treatment on chaetocin-induced reductions in colony formation,"[3]; A549 cells, co-treatment with chaetocin",attenuated chaetocin-induced cytotoxicity
CS[C@@]1(CO)C(=O)N2[C@H]3Nc4ccccc4[C@@]3([C@]34C[C@]5(SC)C(=O)N(C)[C@@](CO)(SC)C(=O)N5[C@H]3Nc3ccccc34)C[C@]2(SC)C(=O)N1C [S-methyl chaetocin],inhibition of reduction of thioredoxin by thioredoxin reductase,[4],inability
same,cytotoxicity (colony formation),"[3]; 24 hour exposure, modified chaetocin disulfide bond",complete abrogation of its cytotoxicity
"CN1C(=O)[C@]2(Cc3cn([C@]45C[C@@]67SS[C@@](CO)(C(=O)N6[C@H]4Nc4ccccc45)N(C)C7=O)c4ccccc34)SS[C@@]1(CO)C(=O)N2C [chetomin, chaetomin]",inhibition of reduction of thioredoxin by thioredoxin reductase,[4],"also inhibited the activity of thioredoxin reductase, albeit somewhat less effectively than chaetocin"
same,Km,[5]; [8],16.1 ± 5.4 µM
COc1cccc2c1C(=O)c1c(O)c3c(c(O)c1C2=O)C[C@@](O)(C(=O)CO)C[C@@H]3O[C@H]1C[C@H](N)[C@H](O)[C@H](C)O1 [doxorubicin],activity against sorted patient CD138+ myeloma cells,"[2]; ex vivo, trypan blue exclusion",largely resistant
same,effect of transient Trx overexpression on drug-induced cell death,[6],did not appreciably rescue cells from doxorubicin-induced cell death
CN1C(=O)[C@]23CC4=CC=C[C@H](O)[C@H]4N2C(=O)[C@@]1(CO)SS3 [gliotoxin],inhibition of reduction of thioredoxin by thioredoxin reductase,[4],"also inhibited the activity of thioredoxin reductase, albeit somewhat less effectively than chaetocin"
same,Km,[5],16 ± 5 µM
"N[C@@H](CCC(=O)N[C@@H](CS)C(=O)NCC(=O)O)C(=O)O [glutathione, reference compound]",effect of pretreatment on cellular accumulation of chaetocin,[7],attenuated the cellular accumulation of chaetocin
same,effect of co-treatment on chaetocin-induced reductions in colony formation,[3],attenuated chaetocin-induced cytotoxicity
"CC(/C=C/C(=O)NO)=C\[C@@H](C)C(=O)c1ccc(N(C)C)cc1 [tricostatin A, trichostatin A]",effect of NAC on reductions in colony formation caused by HDAC inhibitors,[3]; A549 cells,unaffected by NAC
CCCC(CCC)C(=O)O [valproic acid],effect of NAC on reductions in colony formation caused by HDAC inhibitors,[3]; A549 cells,unaffected by NAC
"COc1ccc2c3c4n(c2c1)[C@H](C=C(C)C)OOC(C)(C)C[C@@H]4N1C(=O)[C@@H]2CCCN2C(=O)[C@]1(O)[C@H]3O [verruculogen, reference compound]",inhibition of reduction of thioredoxin by thioredoxin reductase,[4],inability
Trx: TrxR1 native substrate thioredoxin (oxidized E. coli thioredoxin from Promega),Km,[5]; [8],105 ± 26 µM
